Assay [1] has as its system Total count Aerobic bacteria. The assay can be described thus: Total aerobic count on seeds, grains and spices sprayed with sanitizing solutions. It is filed as cell-based. As to the method: (§1) Seeds were mechanically cleaned and spread in stainless steel containers. Each 100 grams seeds were sprayed with 4 ml total solutions descried above via conventional trigger vaporizer. This solution is equivalent to 40 L disinfecting solution total sprayed on 1-ton seeds. Seeds, grains and spices were selected to represent all families and types of seeds, grains and spices. Another criteria was to select seeds and grains contaminated with a high count of total aerobic bacteria, yeast, mold, E. coli, Salmonella sp. and other pathogenic microorganisms.
(§2) Seeds, grains and spices treated were: • Whole dried pea, • Split pea dried, • Pea fiber, • Vanilla, • Chia, • Sprouted flax and chia, • Flax, • Hemp, and • Black pepper seeds

Assay [2] concerns Y&M (yeast, mold). Nature of the assay: Yeast and mold (Y&M) count on seeds, grains and spices sprayed with sanitizing solutions. It is filed as cell-based. The conditions noted are these: for Y&M, n1: replicate n1; for Y&M, n2: replicate n2. On the procedure: as §1, §2
[3] abbreviates: Whole dried pea, 40 L per 1 ton.
Where [4] appears, read: Whole split pea, 40 L per 1 ton.

Consider `CCO` [2- Alcohol - ethanol, ethanol], for which the “Conclusion in words on bactericidal efficacy” value (from here on “Conclusion in words”) in assay [1] (Black pepper, 40 L per 1 ton) is reported as “not a strong bactericidal agent”; in assay [1] (Hemp, 40 L per 1 ton) it was “not a strong bactericidal agent”; in assay [1] (Pea fiber, 40 L per 1 ton) it was “not a strong bactericidal agent”; in assay [1] (Sprouted flax and chia), “bactericidal agent but not very strong”; in assay [1] (Vanilla, 40 L per 1 ton) it was “not a strong bactericidal agent”; in assay [1] (setting [3]), “not a strong bactericidal agent”. The “Conclusion in words” value in assay [1] (setting [4]) is listed as “not a strong bactericidal agent”. Moreover, the “Y&M, Av” value in assay [2] (Pea fiber), in assay [2] (Whole dried pea) and in assay [2] (Whole split pea) was “Y&M not detected” each time. Moreover, the “Y&M, n1” value in assay [2] (Pea fiber) is listed as “n1, n2 not detected”; in assay [2] (Whole dried pea), “n1, n2 not detected”; in assay [2] (Whole split pea), “n1, n2 not detected”. Besides, the “Y&M, n2” value in assay [2] (Pea fiber) is recorded as “n1, n2 not detected”; in assay [2] (Whole dried pea) it was “n1, n2 not detected”; in assay [2] (Whole split pea), “n1, n2 not detected”.
In the case of `CC(=O)OO` [Peracetic acid], the “Conclusion in words” value in assay [1] (Black pepper, 40 L per 1 ton) is listed as “strong bactericidal agent”; in assay [1] (Hemp, 40 L per 1 ton) it was “strong bactericidal agent”; in assay [1] (Pea fiber, 40 L per 1 ton) it was “strong bactericidal agent”; in assay [1] (Vanilla, 40 L per 1 ton), “strong bactericidal agent”; in assay [1] (setting [3]), “strong bactericidal agent”; in assay [1] (setting [4]), “strong bactericidal agent”.

The values above are taken from patent US20160295860A1, “A NOVEL COMPOSITION AND METHOD OF USE TO CONTROL PATHOGENS AND PREVENT DISEASES IN SEEDS” (AGRI-NÉO INC., priority 2013, published 2016).
